We go through nine molecules from ChEMBL document CHEMBL4373746, “Structural attributes influencing unbound tissue distribution” (Eur J Med Chem, 2020).

Data set [1] in a line: Drug concentration in total heart in Wistar Han rat at 1 to 2 mg/kg, iv infused for 10 to 20 hrs by LC-MS/MS analysis. To be noted: in vivo.
Data set [2] can be described thus: Fraction unbound in Wistar Han rat skeletal muscle at 2 uM incubated for 6 hrs by equilibrium dialysis method.
A short description of data set [3]: Fraction unbound in Wistar Han rat white adipose tissue at 2 uM incubated for 6 hrs by equilibrium dialysis method.
Data set [4] in a line: Total plasma concentration in Wistar Han rat at 1 to 2 mg/kg, iv infused for 10 to 20 hrs by LC-MS/MS analysis. As to conditions: in vivo.
A short description of data set [5]: Unbound tissue partition coefficient, ratio of drug level in skeletal muscle to plasma in Wistar Han rat at 1 to 2 mg/kg, iv infused for 10 to 20 hrs by LC-MS/MS analysis. To be noted: skeletal muscle/plasma.
Data set [6] is described as follows: Drug concentration in total brain in Wistar Han rat at 1 to 2 mg/kg, iv infused for 10 to 20 hrs by LC-MS/MS analysis. To be noted: in vivo.
Data set [7] in a line: Unbound tissue partition coefficient, ratio of drug level in brain to plasma in Wistar Han rat at 1 to 2 mg/kg, iv infused for 10 to 20 hrs by LC-MS/MS analysis. As to conditions: brain/plasma.
Data set [8] is described as follows: Apparent permeability of the compound across dog RRCK cells by MDCK-LE assay.
The nature of data set [9]: Fraction unbound in Wistar Han rat liver at 2 uM incubated for 6 hrs by equilibrium dialysis method.
Data set [10] can be described thus: Drug concentration in total liver in Wistar Han rat at 1 to 2 mg/kg, iv infused for 10 to 20 hrs by LC-MS/MS analysis. As to conditions: in vivo.
The nature of data set [11]: Drug concentration in total skeletal muscle in Wistar Han rat at 1 to 2 mg/kg, iv infused for 10 to 20 hrs by LC-MS/MS analysis. As to conditions: in vivo.
A short description of data set [12]: Unbound tissue partition coefficient, ratio of drug level in heart to plasma in Wistar Han rat at 1 to 2 mg/kg, iv infused for 10 to 20 hrs by LC-MS/MS analysis. As to conditions: heart/plasma.
The nature of data set [13]: Drug concentration in total white adipose tissue in Wistar Han rat at 1 to 2 mg/kg, iv infused for 10 to 20 hrs by LC-MS/MS analysis. To be noted: in vivo.
A short description of data set [14]: Unbound tissue partition coefficient, ratio of drug level in adipose to plasma in Wistar Han rat at 1 to 2 mg/kg, iv infused for 10 to 20 hrs by LC-MS/MS analysis. To be noted: adipose/plasma.
Data set [15] is described as follows: Fraction unbound in Wistar Han rat heart at 2 uM incubated for 6 hrs by equilibrium dialysis method.
Data set [16] is described as follows: Fraction unbound in Wistar Han rat plasma at 2 uM incubated for 6 hrs by equilibrium dialysis method.
The nature of data set [17]: Fraction unbound in Wistar Han rat brain at 2 uM incubated for 6 hrs by equilibrium dialysis method.
Data set [18] in a line: Unbound tissue partition coefficient, ratio of drug level in liver to plasma in Wistar Han rat at 1 to 2 mg/kg, iv infused for 10 to 20 hrs by LC-MS/MS analysis. To be noted: liver/plasma.

As for `COc1ccc(Cc2cc([C@@H]3OC4(COC4)[C@@H](O)[C@H](O)[C@H]3O)ccc2C)cc1`, the Ct in data set [1] was 260 ng/mL; in data set [6], 15 ng/mL; in data set [10], 360 ng/mL; in data set [11], 110 ng/mL; in data set [13], 20 ng/mL. For the same molecule, the fraction unbound at 6 h, 2 µM in data set [2] is 0.114; in data set [3], 0.132; in [9], 0.125; in [15] it was 0.076; in [16] it was 0.212; in [17], 0.0553. The molecule also showed a Cp in data set [4] of 81 ng/mL. The Kp uu was 0.71 in data set [5]; 0.048 in data set [7]; 1.2 in data set [12]; 0.16 in data set [14]; 2.7 in data set [18]. For the same molecule, in data set [8], the Papp worked out at 5.8 ×10⁻⁶ cm/s.
Take `CC(C)(CC1Cc2ccccc2C1)NC[C@@H](O)COc1cc(C2CC3CC2C2C(C(=O)O)C32)ccc1C#N` (some centres not stated): the Ct came out at 86 ng/mL in [1]; 1 ng/mL in data set [6]; 400 ng/mL in data set [10]; 16 ng/mL in [11]; 4.7 ng/mL in data set [13]. Also, the fraction unbound at 6 h, 2 µM came out at 0.00211 in [2]; 0.0322 in [3]; 0.00258 in data set [9]; 0.00108 in [15]; 0.0104 in data set [16]; 0.00176 in data set [17]. This molecule also gave a Cp in [4] of 54 ng/mL. Moreover, the Kp uu in [5] amounted to 0.08; in data set [7] it was 0.0025; in [12], 0.19; in data set [14], 0.36; in [18], 2.2. For the same molecule, the Papp in data set [8] was found to be 5.3 ×10⁻⁶ cm/s.
As to `CN(C)C[C@@H](OC(=O)N1Cc2c(NC(=O)C3(C(F)(F)F)CC3)n[nH]c2C1(C)C)c1ccccc1`, the Ct in data set [1] stood at 190 ng/mL; in data set [6], 2.3 ng/mL; in [10], 420 ng/mL; in [11], 97 ng/mL; in data set [13], 79 ng/mL. The fraction unbound at 6 h, 2 µM in [2] was determined as 0.138; in [3] it was 0.205; in data set [9], 0.0749; in data set [15], 0.0941; in data set [16], 0.362; in data set [17], 0.0543. Also, the Cp in data set [4] amounted to 28 ng/mL. The Kp uu amounted to 1.4 in data set [5]; 0.013 in data set [7]; 1.8 in data set [12]; 1.6 in data set [14]; 3.3 in data set [18]. In data set [8], the Papp came out at 15 ×10⁻⁶ cm/s.
`CCCC(Oc1ccc(-n2cc3ccccc3n2)cc1)c1ccc(C(=O)NCCC(=O)O)cc1` (configuration not stated): the Ct in data set [1] is 80 ng/mL; in data set [6], 1.9 ng/mL; in [10], 420 ng/mL; in data set [11] it was 12 ng/mL; in [13], 0.77 ng/mL. The fraction unbound at 6 h, 2 µM in [2] was 0.00584; in data set [3], 0.105; in data set [9], 0.00607; in data set [15] it was 0.00543; in data set [16], 0.0034; in [17] it was 0.00341. Besides, the Cp in data set [4] stood at 68 ng/mL. Besides, the Kp uu in data set [5] was found to be 0.38; in data set [7] it was 0.018; in data set [12], 1.8; in data set [14] it was 0.024; in data set [18], 14. Besides, the Papp in data set [8] came out at 9.9 ×10⁻⁶ cm/s.
Regarding `COc1ccc(-c2cc3c(S(=O)(=O)O)c[nH]c3cc2Cl)cc1`, the Ct was 82 ng/mL in [1]; 4.2 ng/mL in data set [6]; 380 ng/mL in data set [10]; 16 ng/mL in data set [11]; 15 ng/mL in [13]. Moreover, the fraction unbound at 6 h, 2 µM in data set [2] turned out to be 0.0546; in [3], 0.347; in data set [9], 0.0303; in data set [15], 0.0523; in [16] it was 0.00473; in data set [17], 0.0414. Further, the Cp in [4] was determined as 330 ng/mL. Moreover, the Kp uu in [5] stood at 0.6; in [7], 0.13; in data set [12], 2.9; in [14] it was 3.8; in data set [18], 8.7. The Papp in [8] was 2.3 ×10⁻⁶ cm/s.
Regarding `O=C(c1cccc(N2CCNCC2)n1)N1CCC(c2ccccc2F)CC1`, the Ct in [1] was 410 ng/mL; in data set [6] it was 14 ng/mL; in data set [10], 960 ng/mL; in data set [11] it was 170 ng/mL; in [13], 28 ng/mL. Besides, the fraction unbound at 6 h, 2 µM in [2] was 0.0483; in [3], 0.393; in [9], 0.0394; in [15], 0.057; in data set [16] it was 0.0995; in data set [17], 0.0227. Besides, the Cp in data set [4] came to 42 ng/mL. The Kp uu in [5] stood at 2; in data set [7] it was 0.078; in data set [12] it was 5.3; in [14], 2.4; in data set [18], 9.4. Moreover, the Papp in data set [8] turned out to be 24 ×10⁻⁶ cm/s.
As for `C[C@H]1C[C@H]2CSC(N)=N[C@@]2(c2cc(C#N)ccc2F)CO1`, the Ct in data set [1] was found to be 380 ng/mL; in [6] it was 230 ng/mL; in data set [10] it was 990 ng/mL; in [11] it was 240 ng/mL; in data set [13], 86 ng/mL. For the same molecule, the fraction unbound at 6 h, 2 µM in [2] was determined as 0.344; in data set [3], 1; in [9], 0.548; in data set [15] it was 0.668; in data set [16], 0.796; in data set [17], 0.573. The molecule further yielded a Cp in [4] of 84 ng/mL. In addition, the Kp uu in [5] was determined as 1.3; in [7] it was 2.1; in [12] it was 3.9; in data set [14] it was 1.4; in [18], 8.5. For the same molecule, in [8], the Papp came to 29 ×10⁻⁶ cm/s.
As for `N#Cc1ccc(N2N=C(N3CCC(C(=O)N4CCC(O)CC4)CC3)C[C@H]2C2CCCC2)cc1Cl`, the Ct was 550 ng/mL in data set [1]; 16 ng/mL in [6]; 1000 ng/mL in data set [10]; 150 ng/mL in data set [11]; 120 ng/mL in [13]. Moreover, the fraction unbound at 6 h, 2 µM in data set [2] turned out to be 0.00952; in data set [3], 0.109; in data set [9] it was 0.00991; in data set [15] it was 0.00283; in data set [16], 0.00962; in [17], 0.00431. Further, the Cp in data set [4] was determined as 240 ng/mL. Moreover, the Kp uu in data set [5] came to 0.59; in data set [7] it was 0.029; in data set [12] it was 0.68; in data set [14] it was 5.9; in data set [18], 4.3. Also, the Papp in data set [8] worked out at 20 ×10⁻⁶ cm/s.
As for `COCCCN1C[C@H](C)N(C(=O)N2Cc3c(NC(=O)c4ccccn4)n[nH]c3C2(C)C)C[C@H]1C`, the Ct in data set [1] was 110 ng/mL; in data set [6] it was 3.4 ng/mL; in data set [10], 170 ng/mL; in data set [11] it was 68 ng/mL; in data set [13] it was 27 ng/mL. Moreover, the fraction unbound at 6 h, 2 µM in data set [2] turned out to be 0.385; in data set [3], 0.329; in data set [9], 0.375; in data set [15], 0.341; in [16] it was 0.614; in data set [17], 0.0796. This molecule returned a Cp in [4] of 30 ng/mL. The Kp uu came to 1.5 in data set [5]; 0.015 in data set [7]; 2.2 in [12]; 0.51 in data set [14]; 3.8 in data set [18]. Moreover, the Papp in data set [8] turned out to be 21 ×10⁻⁶ cm/s.
